In US8987320B2, “Solid salt forms of a pyrrole substituted 2-indolinone” (Zoetis LLC, priority 2005, dated 2015):
“Also recorded” adds a separate entry of the source.

How the values were obtained:
[1] = Dynamic moisture sorption gravimetry (DMSG) of salts of Compound I; assay type: physicochemical
Description: Dynamic Moisture Sorption Gravimetry (DMSG).
DMSG isotherm was collected on a temperature controlled atmospheric microbalance. Approximately 10 mg samples were placed in the sample pan of the balance. The humidity was sequentially varied from room relative humidity (RH) to 0% RH and was then increased to 90% RH followed by a decrease of RH to 0% again in 3% RH steps. The mass was then measured every two minutes. The RH was stepped to the next target value when change of the sample mass was less than 0.5 μg in 10 min. The Visual Basic program dmsgscn2.exe was used to control the data collection and export the information to an Excel spreadsheet.

[2] = Wettability with water; assay type: physicochemical
[3] = system: KIT; assay: KIT phosphorylation in canine mast cell tumor biopsies before and after a single dose (immunoprecipitation/Western blot); assay type: in vivo
Description: (§1) Study Design. This study was a proof of target modulation study in dogs with recurrent or metastatic grade MCTs. Patients received a single oral dose of Compound I phosphate at 3.25 mg/kg. Using a 6-mm punch biopsy instrument, samples were obtained from the tumor before Compound I phosphate administration and 8 hours (h) after treatment. When possible, multiple biopsies were taken. Each sample was flash frozen in liquid nitrogen and stored at −70° centigrade (C) before analysis. Blood samples for analysis of plasma levels of Compound I phosphate were obtained at the same time as tumor biopsies (see below).
Analysis of KIT and ERK Phosphorylation. Tumor biopsies were frozen in liquid nitrogen and later pulverized using a liquid nitrogen-cooled cryomortar and pestle, then stored at −70° C. until used. For the analysis of KIT, pulverized tumors were homogenized, lysed, and immunoprecipitated from 1 mg of starting tumor lysate, as described previously (Abrams, T. J., Lee, L. B., Murray, L. J., Pryer, N. K., Cherrington, J. M. SU11248 inhibits KIT and platelet-derived growth factor receptor beta in preclinical models of human small cell lung cancer. Mol. Cancer Ther. 2: 471-478, 2003; which is incorporated by reference in its entirety) using an agarose-conjugated antibody to KIT (SC-1493AC; Santa Cruz Biotechnology, Santa Cruz, Calif.). […] The amount of phosphorylated KIT in each sample was determined by Western blot using an antibody to phosphotyrosine 719 of murine KIT (3391; Cell Signaling Technology, Beverly, Mass.), which corresponds to tyrosine 721 of canine KIT and is an autophosphorylation site and, thus, a surrogate for KIT kinase activity. […] Target modulation was scored by eye by three observers blinded to the JM status and plasma concentration. Reduction of ≧50% in phospho-protein signal relative to total protein signal in the biopsy sample taken post-treatment compared with the pretreatment biopsy was scored as positive for target modulation, whereas a reduction of <50% was scored negative.

[4] = system: ERK1/2; assay: ERK1/2 phosphorylation in canine mast cell tumor biopsies before and after a single dose (Western blot); assay type: in vivo; conditions: single oral dose 3.25 mg/kg
Description: as §1
Analysis of KIT and ERK Phosphorylation. […] The amount of phosphorylated KIT in each sample was determined by Western blot using an antibody to phosphotyrosine 719 of murine KIT (3391; Cell Signaling Technology, Beverly, Mass.), which corresponds to tyrosine 721 of canine KIT and is an autophosphorylation site and, thus, a surrogate for KIT kinase activity. […] Target modulation was scored by eye by three observers blinded to the JM status and plasma concentration. Reduction of ≧50% in phospho-protein signal relative to total protein signal in the biopsy sample taken post-treatment compared with the pretreatment biopsy was scored as positive for target modulation, whereas a reduction of <50% was scored negative.

For `Cc1[nH]c(/C=C2\C(=O)Nc3ccc(F)cc32)c(C)c1C(=O)NCCN1CCCC1` [Compound I phosphate], the “% water at 80% RH” value ([1]; 80% RH) was ~1%, the “water at 80 percent humidity” value ([1]; 80 percent relative humidity) was “about 1%” and the “wettability with water compared with Compound I free base” value [2] was “much better”. The “evaluable MCT biopsy pairs with detectable inhibition of KIT activation” value ([3]; Eight of 11, single oral dose) was 73%, the “P-KIT reduction postdose (Phospho-Tyr721 KIT)” value ([3]; individual dogs, single oral dose 3.25 mg/kg, biopsy 8 h after treatment vs pretreatment) was “Yes (Reduction of ≧50% in phospho-protein signal relative to total protein signal in the biopsy sample taken post-treatment compared with the pretreatment biopsy was scored as positive for target modulation); also recorded: No (a reduction of <50% was scored negative)” and the “evaluable dogs scored positive for KIT target modulation (≧50% reduction in phosphorylated KIT relative to total KIT)” value ([3]; single oral dose 3.25 mg/kg) was “Eight”. For the same compound, the “P-ERK½ reduction postdose (Phospho-Thr202/Tyr204 ERK½)” value ([4]; individual dogs, biopsy 8 h after treatment vs pretreatment) was “Yes (Reduction of ≧50% in phospho-protein signal relative to total protein signal in the biopsy sample taken post-treatment compared with the pretreatment biopsy was scored as positive for target modulation); also recorded: No (a reduction of <50% was scored negative)” and the “evaluable tumors showing a reduction in the ratio of phospho-ERK1/2 to total ERK1/2” value [4] was 7 of 11 evaluable.
